Assay results published in publication PMC10538245, “Fragment merging approach for design, synthesis, and biological assessment of urea/acetyl hydrazide clubbed thienopyrimidine derivatives as GSK-3β inhibitors” (BMC Chemistry, 2023).

Columns and labels:
OVCAR-5 = test: NCI 60-cell line one dose antiproliferative assay; format: cell-based; settings: Homo sapiens; OVCAR-5, Ovarian Cancer, 10 µM one dose; read-out: Percent inhibition (cell growth inhibition %)
Source text: (§1) The National Cancer Institute "NCI", NIH, Bethesda, Maryland, USA (www.dtp.nci.nih.gov) chose six of the final compounds for the Developmental Therapeutic Program (DTP), codes (5a, 5b, 5c, 5d, 6a, 6b). The NCI screening service will favor compounds with drug-like modes of action based on computer-aided design. Selection The criterion for screening is the possibility of the submitted compounds to provide diversity to the NCI small molecule chemical collection. This screen employs 60 different Leukemia, melanoma, and additional tumor cell lines of the human from brain, kidney, lung, ovary, colon, breast, and prostate cancers. All compounds were picked based on their NCI codes. NSC: D-820696/1, NSC: D-820697/1, NSC: D-820698/1, NSC: D-820699/1, NSC: D-820700/1, NSC: D-820701/1. The initial 10 µM one dose percent inhibition assay was performed on the entire NCI 60 cell panel to examine the different chemotypes of this work. The results are presented as a percentage of cell growth on each of the 60 NCI cell line panels for each of the investigated substances in Table 2.
(§2) The NCI cancer screening procedure includes a comparison of all substances to the sixty NCI cell line panel representing leukemia, NSCLC, cell lines from breast cancer, prostate cancer, melanoma, CNS cancer, renal cancer, ovarian cancer, and colon cancer at a single point of 10 uM. The results of the single-dose screen can be presented using a mean graph.

MCF7 = test: NCI 60-cell line one dose antiproliferative assay; format: cell-based; settings: Homo sapiens; MCF7, Breast Cancer, 10 µM one dose; read-out: Percent inhibition (cell growth inhibition %)
Source text: as §1, §2

HS 578 T = test: NCI 60-cell line one dose antiproliferative assay; format: cell-based; settings: Homo sapiens, Breast Cancer, 10 µM one dose, read-out: Percent inhibition (cell growth inhibition %)
Source text: as §1, §2

NCI-H23 = test: NCI 60-cell line one dose antiproliferative assay; format: cell-based; settings: Homo sapiens; NCI-H23, Non-Small Cell Lung Cancer, 10 µM one dose; read-out: Percent inhibition (cell growth inhibition %)
Source text: as §1, §2

MDA-MB-435 = test: NCI 60-cell line one dose antiproliferative assay; format: cell-based; settings: Homo sapiens; MDA-MB-435, Melanoma, 10 µM one dose; read-out: Percent inhibition (cell growth inhibition %)
Source text: as §1, §2

MOLT-4 = test: NCI 60-cell line one dose antiproliferative assay; format: cell-based; settings: Homo sapiens; MOLT-4, Leukemia, 10 µM one dose; read-out: Percent inhibition (cell growth inhibition %)
Source text: as §1, §2

BT-549 = test: NCI 60-cell line one dose antiproliferative assay; format: cell-based; settings: Homo sapiens; BT-549, Breast Cancer, 10 µM one dose; read-out: Percent inhibition (cell growth inhibition %)
Source text: as §1, §2

786–0 = test: NCI 60-cell line one dose antiproliferative assay; format: cell-based; settings: Homo sapiens; 786–0, Renal Cancer, 10 µM one dose; read-out: Percent inhibition (cell growth inhibition %)
Source text: as §1, §2

LOX IMVI = test: NCI 60-cell line one dose antiproliferative assay; format: cell-based; settings: Homo sapiens, Melanoma, 10 µM one dose, read-out: Percent inhibition (cell growth inhibition %)
Source text: as §1, §2

A498 = test: NCI 60-cell line one dose antiproliferative assay; format: cell-based; settings: Homo sapiens; A498, Renal Cancer, 10 µM one dose; read-out: Percent inhibition (cell growth inhibition %)
Source text: as §1, §2

EKVX = test: NCI 60-cell line one dose antiproliferative assay; format: cell-based; settings: Homo sapiens, Non-Small Cell Lung Cancer, 10 µM one dose, read-out: Percent inhibition (cell growth inhibition %)
Source text: as §1, §2

SNB-19 = test: NCI 60-cell line one dose antiproliferative assay; format: cell-based; settings: Homo sapiens; SNB-19, CNS Cancer, 10 µM one dose; read-out: Percent inhibition (cell growth inhibition %)
Source text: as §1, §2

SN12C = test: NCI 60-cell line one dose antiproliferative assay; format: cell-based; settings: Homo sapiens, Renal Cancer, 10 µM one dose, read-out: Percent inhibition (cell growth inhibition %)
Source text: as §1, §2

CAKI-1 = test: NCI 60-cell line one dose antiproliferative assay; format: cell-based; settings: Homo sapiens; CAKI-1, Renal Cancer, 10 µM one dose; read-out: Percent inhibition (cell growth inhibition %)
Source text: as §1, §2

SNB-75 = test: NCI 60-cell line one dose antiproliferative assay; format: cell-based; settings: Homo sapiens; SNB-75, CNS Cancer, 10 µM one dose; read-out: Percent inhibition (cell growth inhibition %)
Source text: as §1, §2

IGROV1 = test: NCI 60-cell line one dose antiproliferative assay; format: cell-based; settings: Homo sapiens, IGROV-1; IGROV1, Ovarian Cancer, 10 µM one dose; read-out: Percent inhibition (cell growth inhibition %)
Source text: as §1, §2

A549/ ATCC = test: NCI 60-cell line one dose antiproliferative assay; format: cell-based; settings: Homo sapiens, Non-Small Cell Lung Cancer, 10 µM one dose, read-out: Percent inhibition (cell growth inhibition %)
Source text: as §1, §2

SF-539 = test: NCI 60-cell line one dose antiproliferative assay; format: cell-based; settings: Homo sapiens; SF-539, CNS Cancer, 10 µM one dose; read-out: Percent inhibition (cell growth inhibition %)
Source text: as §1, §2

NCI-H522 = test: NCI 60-cell line one dose antiproliferative assay; format: cell-based; settings: Homo sapiens; NCI-H522, Non-Small Cell Lung Cancer, 10 µM one dose; read-out: Percent inhibition (cell growth inhibition %)
Source text: as §1, §2

K-562 = test: NCI 60-cell line one dose antiproliferative assay; format: cell-based; settings: Homo sapiens, K562; K-562, Leukemia, 10 µM one dose; read-out: Percent inhibition (cell growth inhibition %)
Source text: as §1, §2

MDA-MB-231/ATCC = test: NCI 60-cell line one dose antiproliferative assay; format: cell-based; settings: Homo sapiens, Breast Cancer, 10 µM one dose, read-out: Percent inhibition (cell growth inhibition %)
Source text: as §1, §2

UACC-62 = test: NCI 60-cell line one dose antiproliferative assay; format: cell-based; settings: Homo sapiens; UACC-62, Melanoma, 10 µM one dose; read-out: Percent inhibition (cell growth inhibition %)
Source text: as §1, §2

HCT-116 = test: NCI 60-cell line one dose antiproliferative assay; format: cell-based; settings: Homo sapiens; HCT-116, Colon Cancer, 10 µM one dose; read-out: Percent inhibition (cell growth inhibition %)
Source text: as §1, §2

SR = test: NCI 60-cell line one dose antiproliferative assay; format: cell-based; settings: Homo sapiens, Leukemia, 10 µM one dose, read-out: Percent inhibition (cell growth inhibition %)
Source text: as §1, §2

UO-31 = test: NCI 60-cell line one dose antiproliferative assay; format: cell-based; settings: Homo sapiens; UO-31, Renal Cancer, 10 µM one dose; read-out: Percent inhibition (cell growth inhibition %)
Source text: as §1, §2

SF-268 = test: NCI 60-cell line one dose antiproliferative assay; format: cell-based; settings: Homo sapiens; SF-268, CNS Cancer, 10 µM one dose; read-out: Percent inhibition (cell growth inhibition %)
Source text: as §1, §2

U251 = test: NCI 60-cell line one dose antiproliferative assay; format: cell-based; settings: Homo sapiens, U-251; U251, CNS Cancer, 10 µM one dose; read-out: Percent inhibition (cell growth inhibition %)
Source text: as §1, §2

GSK-3β = GSK-3β (Homo sapiens, UniProt P49841); test: GSK-3β kinase inhibition, Z'-LYTE FRET assay (Thermo Fisher SelectScreen); format: biochemical; settings: for inhibition at 100 µM: 100 μM single dose
PC-3 = test: NCI 60-cell line one dose antiproliferative assay; format: cell-based; settings: Homo sapiens; PC-3, Prostate Cancer, 10 µM one dose; read-out: Percent inhibition (cell growth inhibition %)
Source text: as §1, §2

NCI-H322M = test: NCI 60-cell line one dose antiproliferative assay; format: cell-based; settings: Homo sapiens, Non-Small Cell Lung Cancer, 10 µM one dose, read-out: Percent inhibition (cell growth inhibition %)
Source text: as §1, §2

MDA-MB-468 = test: NCI 60-cell line one dose antiproliferative assay; format: cell-based; settings: Homo sapiens; MDA-MB-468, Breast Cancer, 10 µM one dose; read-out: Percent inhibition (cell growth inhibition %)
Source text: as §1, §2

NCI-H460 = test: NCI 60-cell line one dose antiproliferative assay; format: cell-based; settings: Homo sapiens; NCI-H460, Non-Small Cell Lung Cancer, 10 µM one dose; read-out: Percent inhibition (cell growth inhibition %)
Source text: as §1, §2

T-47D = test: NCI 60-cell line one dose antiproliferative assay; format: cell-based; settings: Homo sapiens, T47D, Breast Cancer, 10 µM one dose, read-out: Percent inhibition (cell growth inhibition %)
Source text: as §1, §2

NCI-H226 = test: NCI 60-cell line one dose antiproliferative assay; format: cell-based; settings: Homo sapiens; NCI-H226, Non-Small Cell Lung Cancer, 10 µM one dose; read-out: Percent inhibition (cell growth inhibition %)
Source text: as §1, §2

RXF 393 = test: NCI 60-cell line one dose antiproliferative assay; format: cell-based; settings: Homo sapiens; RXF 393, Renal Cancer, 10 µM one dose; read-out: Percent inhibition (cell growth inhibition %)
Source text: as §1, §2

SK-MEL-5 = test: NCI 60-cell line one dose antiproliferative assay; format: cell-based; settings: Homo sapiens; SK-MEL-5, Melanoma, 10 µM one dose; read-out: Percent inhibition (cell growth inhibition %)
Source text: as §1, §2

SW-620 = test: NCI 60-cell line one dose antiproliferative assay; format: cell-based; settings: Homo sapiens; SW-620, Colon Cancer, 10 µM one dose; read-out: Percent inhibition (cell growth inhibition %)
Source text: as §1, §2

GSK-3β, sequence (P49841 whole entry): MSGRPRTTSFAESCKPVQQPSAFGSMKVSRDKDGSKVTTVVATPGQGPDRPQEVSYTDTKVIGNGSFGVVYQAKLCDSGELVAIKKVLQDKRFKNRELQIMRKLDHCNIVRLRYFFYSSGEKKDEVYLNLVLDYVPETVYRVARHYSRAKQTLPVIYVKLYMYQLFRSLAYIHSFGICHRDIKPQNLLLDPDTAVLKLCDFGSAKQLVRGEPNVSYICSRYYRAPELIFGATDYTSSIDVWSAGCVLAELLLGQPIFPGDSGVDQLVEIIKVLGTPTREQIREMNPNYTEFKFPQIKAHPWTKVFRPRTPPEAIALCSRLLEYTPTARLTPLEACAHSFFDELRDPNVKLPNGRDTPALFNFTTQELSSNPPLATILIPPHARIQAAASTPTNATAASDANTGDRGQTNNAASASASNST

melting point [°C] | inhibition at 100 µM (GSK-3β) [%] | SMILES | inhibition at 10 µM (OVCAR-5) [%] | inhibition at 10 µM (MCF7) [%] | inhibition at 10 µM (HS 578 T) [%] | inhibition at 10 µM (MOLT-4) [%] | inhibition at 10 µM (LOX IMVI) [%] | inhibition at 10 µM (A498) [%] | inhibition at 10 µM (SNB-19) [%] | inhibition at 10 µM (CAKI-1) [%] | inhibition at 10 µM (SNB-75) [%] | inhibition at 10 µM (IGROV1) [%] | inhibition at 10 µM (A549/ ATCC) [%] | inhibition at 10 µM (NCI-H522) [%] | inhibition at 10 µM (UACC-62) [%] | inhibition at 10 µM (UO-31) [%] | inhibition at 10 µM (SF-268) [%] | further results
290 to 292 | 43 | O=C(COc1ncnc2sc3c(c12)CCCC3)NN=Cc1ccc(Br)cc1 [5c, N'-(4-Bromobenzylidene)-2-((5,6,7,8-tetrahydrobenzo[4,5]thieno[2,3-d]pyrimidin-4-yl)oxy)acetohydrazide] | 10 | 8.67 | 7.31 | 9.38 | 3.68 | 21.3 | 5.53 | 16.7 | 13.6 | 2.52 | 1.87 | 10.3 | 6.58 | 16.6 | 5.08 | inhibition at 10 µM (NCI-H23): 0.25%; inhibition at 10 µM (MDA-MB-435): 0.85%; inhibition at 10 µM (BT-549): 2.58%; inhibition at 10 µM (786–0): 5.22%; inhibition at 10 µM (EKVX): 3.66%; inhibition at 10 µM (SN12C): 3.09%; inhibition at 10 µM (SF-539): 1.02%; inhibition at 10 µM (K-562): 13.5%; inhibition at 10 µM (MDA-MB-231/ATCC): 11.2%; inhibition at 10 µM (HCT-116): 3.24%; inhibition at 10 µM (SR): 8.29%; inhibition at 10 µM (U251): 6.99%
285 | 50 | CN(C)c1ccc(C=NNC(=O)COc2ncnc3sc4c(c23)CCCC4)cc1 [5d, N'-(4-(Dimethylamino)benzylidene)-2-((5,6,7,8-tetrahydrobenzo [4,5]thieno[2,3-d]pyrimidin-4-yl)oxy) acetohydrazide] | 8.97 | 7.82 | 5.71 | 0.81 | 2.93 | 48.4 | 3.31 | 5.26 | 18.8 | 14.4 | 1.15 | 4.74 | 5.34 | 24 | 1.44 | inhibition at 10 µM (PC-3): 3.93%; inhibition at 10 µM (NCI-H322M): 3.69%; inhibition at 10 µM (MDA-MB-468): 15.8%; inhibition at 10 µM (NCI-H460): 1.04%; inhibition at 10 µM (T-47D): 0.95%; inhibition at 10 µM (NCI-H226): 8.81%; inhibition at 10 µM (RXF 393): 7.97%; inhibition at 10 µM (SK-MEL-5): 0.27%; inhibition at 10 µM (SW-620): 2.39%; inhibition at 10 µM (GSK-3β; 10 μM): 5%
